This note sets out measurements from publication PMC5513680 (Medical Science Monitor : International Medical Journal of …, 2017).

What all share (type): biochemical
For assay [1], the target named is Acetylcholinesterase (AChE) (Homo sapiens, UniProt P22303). The assay is described as follows: AChE inhibition assay. The following applies: for Selectivity Index (SI): determined by BuChE/AChE (IC50 ratio).
The target of assay [2] is butylcholinesterase (BuChE) (Homo sapiens, UniProt P06276). The assay is described as follows: BChE inhibition assay.
butylcholinesterase (BuChE), sequence (P06276 29-602): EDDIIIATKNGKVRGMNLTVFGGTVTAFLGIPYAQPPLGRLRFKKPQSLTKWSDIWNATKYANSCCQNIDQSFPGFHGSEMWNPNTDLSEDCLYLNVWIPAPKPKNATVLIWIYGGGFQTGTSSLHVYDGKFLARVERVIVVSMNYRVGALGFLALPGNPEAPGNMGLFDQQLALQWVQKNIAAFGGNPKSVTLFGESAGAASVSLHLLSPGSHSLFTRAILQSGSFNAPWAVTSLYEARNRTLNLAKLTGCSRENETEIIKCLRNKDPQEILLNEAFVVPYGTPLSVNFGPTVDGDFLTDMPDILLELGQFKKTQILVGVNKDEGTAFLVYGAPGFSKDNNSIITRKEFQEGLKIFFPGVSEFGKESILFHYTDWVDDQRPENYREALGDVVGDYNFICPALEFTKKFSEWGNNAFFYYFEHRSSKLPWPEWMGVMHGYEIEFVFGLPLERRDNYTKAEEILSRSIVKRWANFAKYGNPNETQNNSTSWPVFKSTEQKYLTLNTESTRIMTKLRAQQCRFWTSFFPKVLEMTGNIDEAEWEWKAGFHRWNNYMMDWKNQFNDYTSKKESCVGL
The target of a further assay is Aβ (1–42) (Homo sapiens, UniProt P05067). The assay is described as follows: Self-mediated Aβ.
Aβ (1–42), sequence (P05067 672-713): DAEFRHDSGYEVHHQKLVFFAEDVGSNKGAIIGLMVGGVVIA
For a further assay, the target named is β-secretase (Homo sapiens, UniProt P56817). Put plainly: β-secretase inhibition assay.
β-secretase, sequence (P56817 46-501): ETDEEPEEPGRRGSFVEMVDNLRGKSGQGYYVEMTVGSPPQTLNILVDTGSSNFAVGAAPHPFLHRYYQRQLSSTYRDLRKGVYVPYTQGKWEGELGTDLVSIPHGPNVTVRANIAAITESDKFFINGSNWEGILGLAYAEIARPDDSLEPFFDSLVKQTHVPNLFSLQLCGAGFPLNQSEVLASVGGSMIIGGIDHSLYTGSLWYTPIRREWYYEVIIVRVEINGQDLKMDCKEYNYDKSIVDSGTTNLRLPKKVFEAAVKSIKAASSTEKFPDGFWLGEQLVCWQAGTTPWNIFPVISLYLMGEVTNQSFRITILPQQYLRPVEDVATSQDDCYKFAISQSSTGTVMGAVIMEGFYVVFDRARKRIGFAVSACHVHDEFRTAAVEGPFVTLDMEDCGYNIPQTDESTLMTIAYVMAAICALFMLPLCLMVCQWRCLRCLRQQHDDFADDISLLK

Acetylcholinesterase (AChE), sequence (P22303 32-614, species assumed): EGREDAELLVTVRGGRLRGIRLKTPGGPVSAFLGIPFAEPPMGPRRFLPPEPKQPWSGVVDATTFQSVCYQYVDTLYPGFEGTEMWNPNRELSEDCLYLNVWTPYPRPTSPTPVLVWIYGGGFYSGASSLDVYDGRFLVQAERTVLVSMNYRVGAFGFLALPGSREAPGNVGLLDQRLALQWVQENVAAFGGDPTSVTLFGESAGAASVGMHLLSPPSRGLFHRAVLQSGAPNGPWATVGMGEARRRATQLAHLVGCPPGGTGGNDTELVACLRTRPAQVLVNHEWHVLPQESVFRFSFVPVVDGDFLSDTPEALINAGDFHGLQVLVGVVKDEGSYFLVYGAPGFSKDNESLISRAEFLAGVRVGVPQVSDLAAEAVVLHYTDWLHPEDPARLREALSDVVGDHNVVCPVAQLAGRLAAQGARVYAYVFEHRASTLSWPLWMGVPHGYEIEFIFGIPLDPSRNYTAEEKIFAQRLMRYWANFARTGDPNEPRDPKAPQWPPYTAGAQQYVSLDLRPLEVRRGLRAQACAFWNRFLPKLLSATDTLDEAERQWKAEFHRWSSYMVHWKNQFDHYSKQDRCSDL

In the case of `O=C(/C=C/c1ccccc1)c1ccc(OCCNC2CCN(Cc3ccc(F)cc3)CC2)cc1` [8d, (E)-1-(4-(2-((1-(4-fluorobenzyl)piperidin-4-yl)amino)ethoxy)phenyl)-3-phenylprop-2-en-1-one], in assay [1], the half-maximal inhibitory concentration (IC50) (as a rule, the midpoint of a concentration-inhibition curve) stood at 14.2 ± 0.15 µM and the “Selectivity Index (SI)” value came out at 1.86. Further, the IC50 in assay [2] was found to be 26.5 ± 0.28 µM.

For `O=C(/C=C/c1ccccc1)c1ccc(OCCNC2CCN(Cc3ccc(Cl)c(Cl)c3)CC2)cc1` [8h, (E)-1-(4-(2-((1-(3,4-dichlorobenzyl)piperidin-4-yl)amino)ethoxy)phenyl)-3-phenylprop-2-en-1-one], in assay [1], the “Selectivity Index (SI)” value is on record as 1.06.

`O=C(/C=C/c1ccccc1)c1ccc(OCCNC2CCN(Cc3ccc(Br)cc3)CC2)cc1` [8c, (E)-1-(4-(2-((1-(4-bromobenzyl)piperidin-4-yl)amino)ethoxy)phenyl)-3-phenylprop-2-en-1-one]: in assay [1], the IC50 was 18.1 ± 0.33 µM and the “Selectivity Index (SI)” value stood at 1.56. 28.4 ± 0.42 µM corresponded to half-maximal inhibition in assay [2] (IC50).

Turning to `O=C(/C=C/c1ccccc1)c1ccc(OCCNC2CCN(Cc3ccc(Cl)cc3)CC2)cc1` [8b, (E)-1-(4-(2-((1-(4-chlorobenzyl)piperidin-4-yl)amino)ethoxy)phenyl)-3-phenylprop-2-en-1-one], the IC50 in assay [1] turned out to be 10 ± 0.54 µM; in assay [2], 19.45 ± 0.15 µM. For the same compound, in assay [1], the “Selectivity Index (SI)” value turned out to be 1.93.

Consider `Cc1ccc(CN2CCC(NCCOc3ccc(C(=O)/C=C/c4ccccc4)cc3)CC2)cc1` [8g, (E)-1-(4-(2-((1-(4-methylbenzyl)piperidin-4-yl)amino)ethoxy)phenyl)-3-phenylprop-2-en-1-one], for which the IC50 was 1.12 ± 0.13 µM in assay [1], 18.2 ± 2.3 µM against Aβ (1–42), 23.1 ± 1.8 µM on β-secretase and 3.23 ± 0.12 µM in assay [2]. Besides, the “Selectivity Index (SI)” value in assay [1] came out at 2.88.

For `O=C(/C=C/c1ccccc1)c1ccc(OCCNC2CCN(Cc3ccccc3)CC2)cc1` [8a, (E)-1-(4-(2-((1-benzylpiperidin-4-yl)amino)ethoxy)phenyl)-3-phenylprop-2-en-1-one], the IC50 in assay [1] was 32.34 ± 0.26 µM; in assay [2], 21.72 ± 0.11 µM. Moreover, the “Selectivity Index (SI)” value in assay [1] stood at 0.67.

With `COc1ccc(CN2CCC(NCCOc3ccc(C(=O)/C=C/c4ccccc4)cc3)CC2)cc1` [8f, (E)-1-(4-(2-((1-(4-methoxybenzyl)piperidin-4-yl)amino)ethoxy)phenyl)-3-phenylprop-2-en-1-one], in assay [1], 4.22 ± 0.34 µM corresponded to half-maximal inhibition (IC50) and the “Selectivity Index (SI)” value came out at 2.23. The “fold less active against AChE than the parent compound (8g)” value in assay [1] (relative to 8g) is “approximately 3 fold”. The midpoint of inhibition in assay [2], the IC50, lay at 9.45 ± 0.25 µM. In assay [2] (relative to 8g), the “fold less active against BuChE than the parent compound (8g)” value is “approximately 3 fold”.

Regarding `O=C(/C=C/c1ccccc1)c1ccc(OCCNC2CCN(Cc3ccc([N+](=O)[O-])cc3)CC2)cc1` [8e, (E)-1-(4-(2-((1-(4-nitrobenzyl)piperidin-4-yl)amino)ethoxy)phenyl)-3-phenylprop-2-en-1-one], in assay [1], the half-maximal inhibitory concentration (IC50) came to 28.62 ± 0.22 µM and the “Selectivity Index (SI)” value stood at 0.87. Also, in assay [2], it took 25 ± 0.31 µM to reach half-maximal inhibition (IC50).
